The values that follow come from patent publication US9486546B2, “Methods and compositions for radiohalogen protein labeling” (Genentech, Inc., priority 2012, dated 2016).

This data set can be described thus: Water solubility of labeling precursor. Type of data set: physicochemical. To be noted: aqueous 0.1% acetic acid. The source says: The radiochemical strategy shown on FIG. 3 uses the mild, water soluble oxidant, N-chlorosuccinimide, to achieve iodination on the hydroxyphenyl group of 4. […] Even though much greater radiochemical yield was possible by increasing the ratio of 4 to Na^125I, the highest possible specific activity of the radiolabeled intermediate 5 and higher conjugation yields was facilitated by avoiding saturation of available reduced thiols. The intermediate 5 was easily purified from free iodide and oxidant using reverse-phase solid-phase extraction cartridges. Acid deprotection yielded the triacid 6, with completeness of reaction monitored by reverse-phase radio-HPLC (FIG. 3). This 4-hydroxy-3-iodophenyl derivative of DOTA, 6, was designated [^125I] HIP-DOTA. After exhaustive removal of acid by repeated evaporation of toluene, the thiol-containing antibody could be introduced for thiol-maleimide coupling. Remaining free thiols in the radioimmunoconjugate were capped with iodoacetic acid to avoid dimerization or formation of adducts with thiol containing plasma or endogenous proteins. All radioimmunoconjugates were analyzed for purity by size-exclusion HPLC and compared to the profile of unlabeled antibodies, such as trastuzumab.

For the compound `CC(C)(C)OC(=O)CN1CCN(CC(=O)NCCN(CC(=O)NCC(=O)NCCN2C(=O)C=CC2=O)C(=O)Cc2ccc(O)cc2)CCN(CC(=O)OC(C)(C)C)CCN(CC(=O)OC(C)(C)C)CC1` [compound 4, tri-tert-butyl 2,2′,2″-(10-(14-(2,5-dioxo-2,5-dihydro-1H-pyrrol-1-yl)-6-(2-(4-hydroxyphenyl)acetyl)-2,8,11-trioxo-3,6,9,12-tetraazatetradecyl)-1,4,7,10-tetraazacyclododecane-1,4,7-triyl)triacetate], the Water solubility result is “sufficiently water soluble”.
